Measured values as given in US10899741B2, “3,4-bipyridyl pyrazole derivative, and preparation method therefor and medical application thereof” (Jiangsu Hengrui Medicine Co., Ltd., priority 2016, dated 2021).

What was measured:
TGFβRI kinase ALK5 = TGFβRI kinase ALK5 (Homo sapiens (Human), UniProt P36897); experiment: Inhibition of TGFβRI kinase ALK5 activity (ADP-Glo kit); assay type: biochemical; settings: ATP 50 μM, 27° C. 2.5 hours
Protocol: The inhibition effect of TGFβRI kinase activity in vitro was determined by the following method.
The inhibition effect of the compounds of the present invention on TGFβRI kinase ALK5 activity was determined by the following experimental method:
TGFβRI kinase assay kit (V4093, Promega) was used to assay enzyme activity. 2 μl of enzyme solution (the final concentration of enzyme in the reaction system was 2 ng/μL) formulated with reaction buffer (40 mM Tris pH 7.5, 20 mM MgCl2, 0.1 mg/ml BSA), 1 μl of a 3-fold gradient dilution of the compounds dissolved in 5% DMSO, and 2 μl of a mixed solution of ATP and TGFβRI substrate peptide (the final concentration of ATP was 50 μM, and the final concentration of substrate was 0.2 μg/μL) were added successively to a 384-well plate (4514, Corning). After reaction at 27° C. for 2.5 hours, 5 μl of ADP-Glo solution in the kit was added to each well, then the plate was placed at 27° C. for 40 minutes. 10 μl of kinase assay reagent was then added to each well, then the plate was placed at 27° C. for 30 minutes. The chemiluminescence signal values were measured with a Victor 3 (PerkinElmer) multi-function microplate reader. The IC50 values of the compounds for enzyme inhibition were calculated using Graphpad prism software based on each concentration of the compound and the corresponding signal value thereof.

NIH3T3 cell = experiment: Inhibition of NIH3T3 cell proliferation (CellTiter-Glo); assay type: cell-based; settings: NIH3T3, 72 hours, 0.5% FBS; for IC50: Mus musculus
Protocol: The inhibition effect of the compounds of the present invention on NIH3T3 cell proliferation was determined by the following in vitro test.
The inhibition effect of the compounds of the present invention on NIH3T3 cell proliferation was determined by the following experimental method:
On a 96-well white plate with transparent bottom (3903, Corning), 100 μL of NIH3T3 cell (GNM6, Cell Bank of Typical Culture Collection Committee of Chinese Academy of Sciences) was seeded in a DMEM medium containing 10% FBS (SH1-30243.01, GE) in each well. The seeding density is 2000 cells/well. The cells were incubated overnight at 37° C., in 5% CO2. After overnight incubation, each well was replaced with 90 μL of DMEM medium containing 0.5%0 FBS. 10 μl of a 3-fold gradient dilution of the compounds with DMEM medium containing 0.5% FBS was then added, and the plate was incubated for 72 hours in a cell incubator at 37° C., in 5% CO2. Finally, 50 μL of CellTiter-Glo (G7573, Promega) was added to each well. After incubation for 10 minutes at room temperature, the chemiluminescence signal values were measured with a Victor 3 microplate reader (PerkinElmer). The IC50 values of the compounds were calculated using Graphpad Prism software based on each concentration of the compound and the corresponding signal value thereof.

[1] = test system: Smad signaling pathway of TGFβRI; experiment: Inhibition of Smad signaling pathway of TGFβRI (3TP-lux luciferase reporter in HepG2 cells); assay type: cell-based; settings: HepG2, 3TP-lux plasmid, 18 hours; for IC50: Homo sapiens
Protocol: The inhibition effect of the compounds of the present invention on Smad signaling pathway of TGFβRI was determined by the following in vitro test.
The inhibition effect of the compounds of the present invention on Smad signaling pathway of TGFβRI was determined by the following experimental method:
On a 96-well plate, 100 μL of HepG2 cell (TCHu 72, Cell Bank of Typical Culture Collection Committee of Chinese Academy of Sciences) was seeded on an EMEM medium containing 10% FBS (42360-099, Gibco) in each well. The seeding density is 2.5×10^4 cells/well. The cells were incubated overnight at 37° C., in 5% CO2. Each well was replaced with fresh EMEM medium containing 10% FBS. 0.1 μg of 3TP-lux plasmid (11767, Biovector Science Lab, Inc.) was transfected in each well. The cells were further incubated for 24 hours at 37° C., in 5% CO2. Each well was replaced with 90 μL of EMEM medium containing 0.5% FBS, then the cells were starved for 6 hours. The compounds were formulated as a 20 mM stock solution, which was diluted in gradient to a 400× concentration with 100% DMSO, and further 40-fold diluted with EMEM containing 0.5% FBS. The cell culture plate was taken out, then 10 μl of diluted compound or control (0.25% DMSO) was added to each well respectively. The plate was shaken gently, then incubated for 18 hours in an incubator at 37° C., in 5% CO2. Finally, 100 μl of detection reagent ONE-Glo™ Luciferase Assay (E6110, Promega) was added to each well, and the plate was placed in dark at room temperature for 10 minutes. The chemiluminescence signal values were measured with a Victor 3.0 (PerkinElmer). The IC50 values of the compounds were calculated using Graphpad Prism software based on each concentration of the compound and the corresponding signal value thereof.

Chain of TGFβRI kinase ALK5 (P36897 34-503): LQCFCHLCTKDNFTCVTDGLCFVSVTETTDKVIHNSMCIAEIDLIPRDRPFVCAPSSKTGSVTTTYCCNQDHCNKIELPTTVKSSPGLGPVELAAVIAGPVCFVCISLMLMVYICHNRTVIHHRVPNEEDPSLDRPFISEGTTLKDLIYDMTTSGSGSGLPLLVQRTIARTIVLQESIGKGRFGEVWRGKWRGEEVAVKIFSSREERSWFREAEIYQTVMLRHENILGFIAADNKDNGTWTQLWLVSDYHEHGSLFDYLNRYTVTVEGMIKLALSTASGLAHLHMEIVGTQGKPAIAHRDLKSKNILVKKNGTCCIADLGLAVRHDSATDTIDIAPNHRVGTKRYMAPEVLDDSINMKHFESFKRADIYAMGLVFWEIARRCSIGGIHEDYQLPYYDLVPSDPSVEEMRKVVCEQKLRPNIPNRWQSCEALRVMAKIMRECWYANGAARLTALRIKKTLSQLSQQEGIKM

| Structure (SMILES) | IC50 (TGFβRI kinase ALK5) | IC50 (NIH3T3 cell) | Maximum inhibition rate (%) (NIH3T3 cell) | Maximum inhibition rate (%) [1] | IC50 [1] |
| --- | --- | --- | --- | --- | --- |
| Cc1cccc(-c2nn(C3CCCC3)cc2-c2ccnc(-c3ccc(S(C)(=O)=O)cc3)c2)n1 [Example 3, 4-(1-Cyclopentyl-3-(6-methylpyridin-2-yl)-1H-pyrazol-4-yl)-2-(4-(methylsulfonyl)phenyl)pyridine] | 241 nM | 366 nM | 105% | 101% | 57 nM |
| Cc1cccc(-c2nn(C3CC3)cc2-c2ccnc(-c3ccc(C#N)cc3)c2)n1 [Example 7, 4-(4-(1-Cyclopropyl-3-(6-methylpyridin-2-yl)-1H-pyrazol-4-yl)pyridin-2-yl)benzonitrile] |  |  |  | 98% | 168 nM |
| Cc1cccc(-c2nn([C@@H]3CCN(S(C)(=O)=O)C3)cc2-c2ccnc(-c3ccc(S(C)(=O)=O)cc3)c2)n1 [Example 8, (R)-4-(3-(6-Methylpyridin-2-yl)-1-(1-(methylsulfonyl)pyrrolidin-3-yl)-1H-pyrazol-4-yl)-2-(4-(methylsulfonyl)phenyl)pyridine] | 370 nM | 490 nM | 114% | 98% | 218 nM |
